The nature of assay [1]: Dynamic Vapor Sorption (DVS) % water reduction of treated hair. How it is done:
The % water reduction is calculated as follows:
% Water reduction=[(B−A)×100]/B

Assay [2] can be described thus: Additional evaluations: expert rating of hair switches for frizz, clean feel and greasy feel. To be noted: non-aqueous compositions, Tables 9 and 10. How it is done: […] The switch is kept at high humidity (above 85%) for 2 hours. Then, ten experts are asked to rate each hair switch in terms of frizz, clean feel, and greasy feel, based on a 5 point scale, 5 being the highest and 1 being the lowest rating.
Additional non-aqueous leave-on treatment compositions are prepared (Tables 9 and 10) according to the procedure described above, which are used to treat hair switches using the procedure described above (amount of 0.10 g of composition per g of hair). The switch is kept at high humidity (above 85%) for 2 hours. Then, ten experts are asked to rate each hair switch in terms of frizz, clean feel and greasy feel, based on a 5 point scale, 5 being the highest and 1 being the lowest rating.

The mark [3] stands for this setting: Class I materials, 1% wt/vol, hair 0% RH versus 90% RH, versus control hair.
The mark [4] stands for this setting: Class II materials, hair 0% RH versus 90% RH, versus control hair.

Data on 20 molecules can be found in US20180289605A1, “NON-AQUEOUS COMPOSITION FOR HAIR FRIZZ REDUCTION” (The Procter & Gamble Company, priority 2017, published 2018).

In the case of `O=C(O)c1ccc(O)cc1O` [2,4-Dihydroxybenzoic acid], the “% Water reduction” value in assay [1] (setting [3]) was 30%. For the same molecule, the “Results of hair switch rating in words (frizz protection, clean feel, greasy feel)” value (“Results of hair switch rating in words” for short) in assay [2] is “provide fizz protection with clean feel and without greasy feel negative”. Consider `CCCCCCCCC(CO)CCCCCC` (stereo not shown) [2-Hexyl-1-decanol], for which the “% Water reduction” value in assay [1] (setting [4]) came to 11%. Moreover, in assay [2], the “Results of hair switch rating in words” value was “provide frizz protection with clean feel and without greasy feel negative”.

As for `O=C(OCCO)c1ccccc1O` [2-Hydroxyethyl salicylate], in assay [1] (setting [4]), the “% Water reduction” value is on record as 10%. In addition, in assay [2], the “Results of hair switch rating in words” value was “provide frizz protection with clean feel and without greasy feel negative”.

With `O=C(O)c1ccc(O)c(O)c1` [3,4-Dihydroxybenzoic acid], the “% Water reduction” value in assay [1] (setting [3]) worked out at 20%. The same measure, in the same setting: as for `O=C(O)c1cccc(O)c1` [3-Hydroxybenzoic Acid], the figure is 20%; as for `Nc1ccc(O)cc1` [4-Aminophenol], 10%. Regarding `O=S(=O)(O)c1ccc(O)cc1` [4-Hydroxybenzenesulphonic acid], the “Results of hair switch rating in words” value in assay [2] was “provide fizz protection with clean feel and without greasy feel negative”. The same measure, in the same setting: as for `O=C(O)c1cc(Cl)ccc1O` [5-Chlorosalicylic acid], the entry is “provide fizz protection with clean feel and without greasy feel negative”.

Take `CCOC(=O)c1cc(O)c(O)c(O)c1` [Ethyl gallate]: in assay [1] (setting [4]), the “% Water reduction” value was found to be 17%. `CCCCC/C=C\C/C=C\CCCCCCCC(=O)OCC` [Ethyl linoleate]: the “% Water reduction” value in assay [1] (setting [4]) came to 8%. On the same count and under the same terms, as for `CCCCCCCC/C=C\CCCCCCCC(=O)OCC(O)CO` (stereo not shown) [Glyceryl monooleate], the figure is 5%. Same read-out and setting: next, `CC(C)C(=O)O` [Isobutyric acid]: 5%.

Consider `CCCCCCCCCCCCCC(=O)OC(C)C` [Isopropyl myristate], for which the “% Water reduction” value in assay [1] (setting [4]) was found to be 12%. For the molecule `CC(C)CCCCCCCCCCCCCCCOC(=O)CCCCCCCCCCCCCCC(C)C` [Isostearyl isostearate], the “% Water reduction” value in assay [1] (setting [4]) worked out at 11%. In assay [2], the “Results of hair switch rating in words” value was “provide frizz protection with clean feel and without greasy feel negative”. On to `CCCCCCCC/C=C\CCCCCCCC(=O)O` [Oleic Acid], for which the “% Water reduction” value in assay [1] (setting [4]) amounted to 14%. Turning to `C/C(=C\CO)CCC[C@H](C)CCC[C@H](C)CCCC(C)C` [Phytol], the “% Water reduction” value in assay [1] (setting [4]) is reported as 14%. As for `CCCCCC[C@@H](O)C/C=C\CCCCCCCC(=O)O` [Ricinoleic acid], the “% Water reduction” value in assay [1] (setting [4]) came out at 8.8%. As to `O=C(O)c1ccccc1O` [Salicylic acid], the “% Water reduction” value in assay [1] (Table 6, 1% salicylic acid in ethanol:water (50:50), final pH 3.2 (column pH 3)) came to 30%; in assay [1] (Table 6, 1% salicylic acid in ethanol:water (50:50), final pH 4.2) it was 27%; in assay [1] (Table 6, 1% salicylic acid in ethanol:water (50:50), final pH 7), 22%; in assay [1] (Table 6, 1% salicylic acid in ethanol:water (50:50), final pH 10) it was 15%. Also, the “Results of hair switch rating in words” value in assay [2] was “provide fizz protection with clean feel and without greasy feel negative”. With `COc1cc(/C=C/C(=O)O)ccc1O` [Trans-Ferulic Acid], the “% Water reduction” value in assay [1] (setting [3]) stood at 6%. On to Sorbitan caprylate, for which the “% Water reduction” value in assay [1] (setting [4]) was determined as 11%.
